{"source": "the supplement of paper PMC10307832", "assay_in_all_cases": "relative viability (nuclei count vs DMSO), 5 days (fraction); higher = more cells survive", "key": {"XMD13-2 + Lapatinib": {"compound": "C1CC1C(=O)NC2=NNC3=C2C=CC(=C3)C4=CC(=CC=C4)C(=O)NC5CC5 [XMD13-2] + CS(=O)(=O)CCNCc1ccc(-c2ccc3ncnc(Nc4ccc(OCc5cccc(F)c5)c(Cl)c4)c3c2)o1 [Lapatinib] (partner 2 µM)", "method_in_brief": "(§1)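 The day after seeding in 1536-well plates, lung cancer cell lines were treated by pin tool with a single drug, or with a fixed anchor-drug dose together with five library-drug doses (not always all listed) in √10 steps. After 5 days, a combined fix-and-stain solution (final 0.05% Triton X-100, 1% formaldehyde, 1 ug/ml Hoechst) was added. Nuclei counted on 4× images gave relative viability as treated counts over vehicle counts, reported as the median of duplicate plates.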"}, "ALW-II-49-7 + Phenformin": {"compound": "Cc1ccc(C(=O)Nc2cccc(C(F)(F)F)c2)cc1Nc1cncc(C(N)=O)c1 [ALW-II-49-7] + N=C(N)NC(=N)NCCc1ccccc1 [Phenformin] (partner 250 µM)", "method_in_brief": "as §1"}, "XMD13-2 + Foretinib": {"compound": "C1CC1C(=O)NC2=NNC3=C2C=CC(=C3)C4=CC(=CC=C4)C(=O)NC5CC5 [XMD13-2] + COc1cc2c(Oc3ccc(NC(=O)C4(C(=O)Nc5ccc(F)cc5)CC4)cc3F)ccnc2cc1OCCCN1CCOCC1 [Foretinib] (partner 0.25 µM)", "method_in_brief": "as §1"}, "ALW-II-49-7 + Alpelisib": {"compound": "Cc1ccc(C(=O)Nc2cccc(C(F)(F)F)c2)cc1Nc1cncc(C(N)=O)c1 [ALW-II-49-7] + Cc1nc(NC(=O)N2CCC[C@H]2C(N)=O)sc1-c1ccnc(C(C)(C)C(F)(F)F)c1 [Alpelisib] (partner 2 µM)", "method_in_brief": "as §1"}}}
{"cell line": "UMC-11", "values": [{"measurement": "relative viability", "setting": "XMD13-2 + Lapatinib; first compound 0.05 µM", "result": 1.18}, {"measurement": "relative viability", "setting": "XMD13-2 + Lapatinib; first compound 0.1581 µM", "result": 0.856}, {"measurement": "relative viability", "setting": "XMD13-2 + Lapatinib; first compound 0.5 µM", "result": 1.01}, {"measurement": "relative viability", "setting": "XMD13-2 + Lapatinib; first compound 1.581 µM", "result": 0.901}, {"measurement": "relative viability", "setting": "XMD13-2 + Lapatinib; first compound 5 µM", "result": 1.08}, {"measurement": "relative viability", "setting": "ALW-II-49-7 + Phenformin; first compound 0.08 µM", "result": 0.347}, {"measurement": "relative viability", "setting": "ALW-II-49-7 + Phenformin; first compound 0.253 µM", "result": 0.372}, {"measurement": "relative viability", "setting": "ALW-II-49-7 + Phenformin; first compound 0.8 µM", "result": 0.352}, {"measurement": "relative viability", "setting": "ALW-II-49-7 + Phenformin; first compound 2.53 µM", "result": 0.304}, {"measurement": "relative viability", "setting": "ALW-II-49-7 + Phenformin; first compound 8 µM", "result": 0.268}, {"measurement": "relative viability", "setting": "XMD13-2 + Foretinib; first compound 0.05 µM", "result": 1.23}, {"measurement": "relative viability", "setting": "XMD13-2 + Foretinib; first compound 0.1581 µM", "result": 1.09}, {"measurement": "relative viability", "setting": "XMD13-2 + Foretinib; first compound 0.5 µM", "result": 1}, {"measurement": "relative viability", "setting": "XMD13-2 + Foretinib; first compound 1.581 µM", "result": 1.08}, {"measurement": "relative viability", "setting": "XMD13-2 + Foretinib; first compound 5 µM", "result": 1.06}, {"measurement": "relative viability", "setting": "ALW-II-49-7 + Alpelisib; first compound 0.08 µM", "result": 0.841}, {"measurement": "relative viability", "setting": "ALW-II-49-7 + Alpelisib; first compound 0.253 µM", "result": 1}, {"measurement": "relative viability", "setting": "ALW-II-49-7 + Alpelisib; first compound 2.53 µM", "result": 1.06}, {"measurement": "relative viability", "setting": "ALW-II-49-7 + Alpelisib; first compound 8 µM", "result": 0.971}]}
